Where a name gives a salt, the structure may show the parent alone. Read-outs that look alike come from different tables or passages of the source.
Tests used:
Type in all cases: cell-based
[1] = tested on: human colon carcinoma cell line HCT116; assay: Caspase cascade activation in HCT116 cells; conditions: Homo sapiens, HCT-116, 48 h, read-out: Caspase activation Potency EC50 HCT116 (48 h)
Method: (§1) Human breast cancer cell line T-47D, human lung cancer cell line H1299, human hepatocellular carcinoma cell line SNU398, human colon carcinoma cell line HCT116 were grown according to media component mixtures designated by American Type Culture Collection+10% FCS (Invitrogen Corporation), in a 5% CO2-95% humidity incubator at 37° C. T-47D and H1299 cells were maintained at a cell density between 50 and 80% confluency at a cell density of 0.1 to 0.6×10^6 cells/mL. Cells were harvested at 600×g and resuspended at 0.65×10^6 cells/mL into appropriate media+10% FCS. An aliquot of 22.5 μL of cells was added to a well of a 384-well microtiter plate containing 2.5 μL of a 10% DMSO in RPMI-1640 media solution containing 0.16 to 100 μM of N-(2,5-dimethoxyphenyl)-2-methylthieno[3,2-d]pyrimidin-4-amine or other test compound (0.016 to 10 μM final). An aliquot of 22.5 μL of cells was added to a well of a 384-well microtiter plate containing 2.5 μL of a 10% DMSO in RPMI-1640 media solution without test compound as the control sample. The samples were mixed by agitation and then incubated at 37° C. for 24 h or 48 h in a 5% CO2-95% humidity incubator. After incubation, the samples were removed from the incubator and 25 μL of a solution containing 14 μM of N-(Ac-DEVD)-N′-ethoxycarbonyl-R110 (SEQ ID NO.:1) fluorogenic substrate (Cytovia, Inc.; WO99/18856), 20% sucrose (Sigma), 20 mM DTT (Sigma), 200 mM NaCl (Sigma), 40 mM Na PIPES buffer pH 7.2 (Sigma), and 500 μg/mL lysolecithin (Calbiochem) was added. The samples were mixed by agitation and incubated at room temperature. Using a fluorescent plate reader (Model SPECTRAfluor Plus, Tecan), an initial reading (T=0) was made approximately 1-2 min after addition of the substrate solution, employing excitation at 485 nm and emission at 530 nm, to determine the background fluorescence of the control sample. After the 3 h incubation, the samples were read for fluorescence as above (T=3 h).
(§2) The Relative Fluorescence Unit values (RFU) were used to calculate the sample readings as follows: RFU(T=3h)−Control RFU(T=O)=Net RFU(T=3h)
(§3) The activity of caspase cascade activation was determined by the ratio of the net RFU value for N-(2,5-dimethoxyphenyl)-2-methylthieno[3,2-d]pyrimidin-4-amine or other test compound to that of control samples. The EC50 (nM) was determined by a sigmoidal dose-response calculation (Prism 3.0, GraphPad Software Inc.).

[2] = tested on: human lung cancer cell line H1299; assay: Caspase cascade activation in H1299 cells; conditions: NCI-H1299, 24 h, read-out: Caspase activation Potency EC50 H1299 (24 h)
Method: as §1, §2, §3

[3] = tested on: human breast cancer cell line T-47D; assay: Caspase cascade activation (DEVD-R110 fluorogenic substrate) in T-47D cells; conditions: Homo sapiens, T47D
Method: as §1, §2, §3

[4] = tested on: human hepatocellular carcinoma cell line SNU398; assay: Caspase cascade activation in SNU398 cells; conditions: Homo sapiens, SNU-398, 48 h, read-out: Caspase activation Potency EC50 SNU398 (48 h)
Method: as §1, §2, §3

[5] = 24 h, T47D cells, 24 h, read-out: Caspase activation Potency EC50 T47D (24 h)
[6] = 48 h, T-47D cells, 48 h, read-out: Caspase activation Potency EC50 T-47D (48 h)

EC50 [1] [µM] | EC50 [2] [µM] | EC50 [3, 5] [µM] | EC50 [3, 6] [µM] | EC50 [4] [µM] | SMILES
> 10 | > 10 | > 10 | > 10 | > 10 | COc1ccc(Nc2nc(C)nc3scc(C)c23)cc1 [Example 13, N-(4-Methoxyphenyl)-2,5-dimethylthieno[2,3-d]pyrimidin-4-amine hydrochloride]
> 10 | > 10 | 1.81 | 2.02 | > 10 | COc1ccc(Nc2ncnc3ccsc23)cc1OC [Example 14, N-(3,4-Dimethoxyphenyl)thieno[3,2-d]pyrimidin-4-amine hydrochloride]
> 10 | 5.08 | 5.74 | 5.46 | 5.28 | COc1ccc(Nc2nc(C)nc3sccc23)cc1 [Example 15, N-(4-Methoxyphenyl)-2-methylthieno[2,3-d]pyrimidin-4-amine]
> 10 | > 10 | > 10 | > 10 | > 10 | COc1ccc(OC)c(Nc2ncnc3sc(-c4ccccc4)c(C)c23)c1 [Example 16, N-(2,5-Dimethoxyphenyl)-5-methyl-6-phenylthieno[2,3-d]pyrimidin-4-amine hydrochloride]
0.346 | 0.299 | 0.036 | 0.105 | 0.534 | COc1ccc(OC)c(Nc2ncnc3cc(I)sc23)c1 [Example 17, 6-Iodo-N-(2,5-dimethoxyphenyl)thieno[3,2-d]pyrimidin-4-amine hydrochloride]
> 10 | 2.79 | 0.071 | 0.171 | > 10 | COc1ccc(OC)c(Nc2ncnc3c(C)c(I)sc23)c1 [Example 18, 6-Iodo-N-(2,5-dimethoxyphenyl)-7-methylthieno[3,2-d]pyrimidin-4-amine hydrochloride]
> 10 | > 10 | > 10 | > 10 | > 10 | COc1ccc(Nc2ncnc3ccsc23)cc1 [Example 19, N-(4-Methoxyphenyl)thieno[3,2-d]pyrimidin-4-amine hydrochloride]
0.341 | 0.114 | 0.016 | 0.037 | 0.431 | COc1ccc(OC)c(Nc2ncnc3cc(Br)sc23)c1 [Example 20, 6-Bromo-N-(2,5-dimethoxyphenyl)thieno[3,2-d]pyrimidin-4-amine]
> 10 | > 10 | > 10 | > 10 | > 10 | Cc1cc(Nc2ncnc3ccsc23)no1 [Example 21, N-(5-Methylisoxazol-3-yl)thieno[3,2-d]pyrimidin-4-amine hydrochloride]
0.341 | 5.03 | 0.114 | 0.233 | > 10 | COc1ccc(OC)c(Nc2ncnc3c(C)csc23)c1 [Example 22, N-(2,5-Dimethoxyphenyl)-7-methylthieno[3,2-d]pyrimidin-4-amine]
> 10 | > 10 | > 10 | > 10 | > 10 | COc1ccc(Nc2ncnc3scc(C)c23)cc1 [Example 23, N-(4-Methoxyphenyl)-5-methylthieno[2,3-d]pyrimidin-4-amine]
> 10 | > 10 | > 10 | > 10 | > 10 | c1nc(Nc2ccc3[nH]ccc3c2)c2sccc2n1 [Example 24, N-(1H-Indol-5-yl)thieno[3,2-d]pyrimidin-4-amine]
> 10 | 5.44 | 5.57 | > 10 | > 10 | Brc1cccc(Nc2ncnc3ccsc23)c1 [Example 25, N-(3-Bromophenyl)thieno[3,2-d]pyrimidin-4-amine hydrochloride]
> 10 | 5.04 | 0.476 | 0.496 | > 10 | COc1ccc(OC)c(Nc2nc(-c3ccccc3)nc3ccsc23)c1 [Example 26, N-(2,5-Dimethoxyphenyl)-2-phenylthieno[3,2-d]pyrimidin-4-amine]
0.319 | 0.041 | 0.02 | 0.036 | 0.206 | COc1ccc(OC)c(Nc2nc(SC)nc3ccsc23)c1 [Example 27, N-(2,5-Dimethoxyphenyl)-2-(methylthio)thieno[3,2-d]pyrimidin-4-amine]
> 10 | > 10 | 0.422 | 0.542 | > 10 | COc1ccc(OC)c(Nc2ncnc3sc(C)cc23)c1 [Example 28, N-(2,5-Dimethoxyphenyl)-6-methylthieno[2,3-d]pyrimidin-4-amine hydrochloride]
> 10 | > 10 | > 10 | > 10 | > 10 | COc1ccc(OC)c(Nc2nc(C)nc3sc(C)c(C)c23)c1 [Example 29, N-(2,5-Dimethoxy-phenyl)-2,5,6-trimethylthieno[2,3-d]pyrimidin-4-amine hydrochloride]
> 10 | 5.11 | > 10 | > 10 | > 10 | COc1cccc(C)c1Nc1ncnc2ccsc12 [Example 30, N-(2-Methoxy-6-methylphenyl)thieno[3,2-d]pyrimidin-4-amine]
> 10 | > 10 | 0.417 | 0.519 | > 10 | COc1ccc(C)cc1Nc1ncnc2ccsc12 [Example 31, N-(2-Methoxy-5-methylphenyl)thieno[3,2-d]pyrimidin-4-amine]
4.25 | 1.42 | 2.07 | 4.01 | 1.6 | COc1ccc(OC)c(Nc2ncnc3cc(-c4ccccc4)sc23)c1 [Example 32, N-(2,5-Dimethoxyphenyl)-6-phenylthieno[3,2-d]pyrimidin-4-amine]
> 10 | > 10 | > 10 | > 10 | > 10 | CCOC(=O)C=Cc1ccc(Nc2ncnc3ccsc23)cc1 [Example 33, 3-[4-(Thieno[3,2-d]pyrimidin-4-ylamino)-phenyl]acrylic acid ethyl ester]
> 10 | > 10 | > 10 | > 10 | > 10 | COc1ccc(OC)c(Nc2ncnc3sc(C)c(C)c23)c1 [Example 34, N-(2,5-Dimethoxyphenyl)-5,6-dimethylthieno[2,3-d]pyrimidin-4-amine]
> 10 | > 10 | > 10 | > 10 | > 10 | COc1ccc([N+](=O)[O-])c(Nc2ncnc3ccsc23)c1 [Example 35, N-(5-Methoxy-2-nitrophenyl)thieno[3,2-d]pyrimidin-4-amine]
> 10 | 5.09 | > 10 | 0.873 | 5.18 | CCOc1ccc(OCC)c(Nc2ncnc3ccsc23)c1 [Example 36, N-(2,5-Diethoxyphenyl)thieno[3,2-d]pyrimidin-4-amine]
> 10 | 5.06 | 5.07 | 5.33 | 3.57 | COc1ccc([N+](=O)[O-])cc1Nc1ncnc2ccsc12 [Example 37, N-(2-Methoxy-5-nitrophenyl)thieno[3,2-d]pyrimidin-4-amine]
> 10 | > 10 | > 10 | > 10 | > 10 | COc1ccc(Oc2ccccc2)cc1Nc1ncnc2ccsc12 [Example 38, N-(2-Methoxy-5-phenoxyphenyl)thieno[3,2-d]pyrimidin-4-amine]

Reference: US20070099877A1, “N-aryl-thienopyrimidin-4-amines and analogs as activators of caspases and inducers of apoptosis and the use thereof” (Cytovia, Inc., priority 2005, published 2007)
